Experimental findings from patent US20250017213A1, “COMPOSITION FOR MODULATING MICROBIAL GROWTH” (DSM AUSTRIA GMBH, priority 2021, published 2025) are described below.

The assay relates to Lactobacillus reuteri F 275 (DSMZ 20016). Put plainly: microbe, parasite or virus in culture. As to conditions: Limosilactobacillus reuteri.

What is called inhibition is the percentage by which the read-out fell short of the control. Low readings indicate a weak effect, high ones a strong effect. As to `O=CO` [formic, formic acid], the inhibition at […] amounted to 23.4% (DSMZ20016, NCI-H125, 4 h); 38.2% (DSMZ20016, NCI-H125, 5 h); 39.8% (DSMZ20016, NCI-H125, 6 h); 39.7% (DSMZ20016, NCI-H125, 7 h); 39.5% (DSMZ20016, NCI-H125, 10 h).
